Experimental data: US6737383B1, “Herbicidal oxadiazolidines” (priority 1999, dated 2004)

Experiments:
bedstraw = assay: Test B pre/postemergence bedstraw; assay type: in vivo, Galium aparine
Summary of the method: (§1)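 Herbicidal effect was estimated by eye on a ten-point control scale after plants spent twelve to sixteen days in a greenhouse following soil or foliar treatment. Foliar sprays targeted plants at one to four leaves; all doses were formulated in a non-phytotoxic solvent with surfactant.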

blackgrass = assay: Test B pre/postemergence blackgrass; assay type: in vivo, Alopecurus myosuroides
Summary of the method: as §1

surinam grass = assay: Test B pre/postemergence surinam grass; assay type: in vivo, Brachiaria decumbens
Summary of the method: as §1

cocklebur = assay: Test B pre/postemergence cocklebur; assay type: in vivo, Xanthium strumarium
Summary of the method: as §1

corn = assay: Test B pre/postemergence corn; assay type: in vivo, Zea mays
Summary of the method: as §1

crabgrass = assay: Test B pre/postemergence crabgrass; assay type: in vivo, Digitaria sanguinalis
Summary of the method: as §1

giant foxtail = assay: Test B pre/postemergence giant foxtail; assay type: in vivo, Setaria faberii
Summary of the method: as §1

morningglory = assay: Test B pre/postemergence morningglory; assay type: in vivo, Ipomoea hederacea
Summary of the method: as §1

pigweed = assay: Test B pre/postemergence pigweed; assay type: in vivo, Amaranthus retroflexus
Summary of the method: as §1

rape = assay: Test B pre/postemergence rape; assay type: in vivo, Brassica napus
Summary of the method: as §1

soybean = assay: Test B pre/postemergence soybean; assay type: in vivo, Glycine max
Summary of the method: as §1

sugar beet = assay: Test B pre/postemergence sugar beet; assay type: in vivo, Beta vulgaris
Summary of the method: as §1

velvetleaf = assay: Test B pre/postemergence velvetleaf; assay type: in vivo, Abutilon theophrasti
Summary of the method: as §1

wheat = assay: Test B pre/postemergence wheat; assay type: in vivo, Triticum aestivum
Summary of the method: as §1

wild oat = assay: Test B pre/postemergence wild oat; assay type: in vivo, Avena fatua
Summary of the method: as §1

purple nutsedge = assay: Test B pre/postemergence purple nutsedge; assay type: in vivo, Cyperus rotundus
Summary of the method: as §1

rice = assay: Test B flood test rice; assay type: in vivo, Oryza sativa
Summary of the method: (§2)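 Plants were grown to the 2-leaf stage before treatment with test chemical, then held in a greenhouse for twelve to sixteen days. Injury was visually rated against untreated controls on a 0–10 scale, where 0 is no effect and 10 is complete control.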

smallflower flatsedge = assay: Test B flood test smallflower flatsedge; assay type: in vivo, Cyperus difformis
Summary of the method: as §2

duck salad = assay: Test B flood test duck salad; assay type: in vivo, Heteranthera limosa
Summary of the method: as §2

bamyardgrass = assay: Test B flood test barnyardgrass; assay type: in vivo, Echinochloa crus-galli
Summary of the method: as §2

[1] = Postemergence, Rate 125 g/ha, scale of 0 to 10 where 0 is no effect and 10 is complete control
[2] = Preemergence, Rate 31 g/ha, visual rating, scale 0 to 10 (0 no effect, 10 complete control)
[3] = Preemergence, Rate 62 g/ha, scale 0 to 10 (0 no effect, 10 complete control)
[4] = Preemergence, Rate 250 g/ha, scale 0 to 10 (0 no effect, 10 complete control)
[5] = Postemergence, Rate 31 g/ha, visual rating, scale 0 to 10 (0 no effect, 10 complete control)
[6] = Postemergence, Rate 62 g/ha, scale 0 to 10, 0 is no effect, 10 is complete control
[7] = Preemergence, Rate 125 g/ha, scale of 0 to 10 where 0 is no effect and 10 is complete control
[8] = Rate 31 g/ha, Pre-emergence section (flood test species), scale 0 to 10
[9] = Rate 62 g/ha, flood test species, Pre-emergence, visual evaluation after twelve to sixteen days
[10] = Rate 125 g/ha, under heading Pre-emergence, flood test species, visual evaluation after twelve to sixteen days
[11] = Rate 250 g/ha, Pre-emergence (flood test species), scale 0 to 10, 0 is no effect, 10 is complete control

In the case of `CCOC(=O)CC(C(=O)OCC)n1c(=O)on(C(=O)N(c2ccccc2)C(C)C)c1=O` (stereo not shown) [Compound 614], the “Plant response rating, Bedstraw” value (bedstraw; [1]) is reported as 0, the “Bedstraw plant response rating” value (bedstraw; [2]) is reported as 0 and the “Bedstraw plant response rating” value (bedstraw; [3]) is reported as 0. The “Plant response rating, Bedstraw” value (bedstraw; [4]) was 0, the “Blackgrass plant response rating” value (blackgrass; [5]) was 0 and the “Plant response rating, Blackgrass” value (blackgrass; [6]) was 0. For the same molecule, the “Plant response rating, Blackgrass” value (blackgrass; [1]) was 0, the “Blackgrass plant response rating” value (blackgrass; [2]) was 0 and the “Blackgrass plant response rating” value (blackgrass; [3]) was 0. For the same molecule, the “Blackgrass plant response rating” value (blackgrass; [7]) was 0, the “Plant response rating, Blackgrass” value (blackgrass; [4]) was 3 and the “B. signalgrass plant response rating” value (surinam grass; [5]) was 0. The “Plant response rating, B. signalgrass” value (surinam grass; [6]) was 0, the “Plant response rating, B. signalgrass” value (surinam grass; [1]) was 0 and the “B. signalgrass plant response rating” value (surinam grass; [2]) was 0. For the same molecule, the “B. signalgrass plant response rating” value (surinam grass; [3]) was 0, the “B. signalgrass plant response rating” value (surinam grass; [7]) was 0 and the “Plant response rating, B. signalgrass” value (surinam grass; [4]) was 0. For the same molecule, the “Cocklebur plant response rating” value (cocklebur; [5]) was 0, the “Plant response rating, Cocklebur” value (cocklebur; [6]) was 0 and the “Plant response rating, Cocklebur” value (cocklebur; [1]) was 0. For the same molecule, the “Cocklebur plant response rating” value (cocklebur; [2]) was 0, the “Cocklebur plant response rating” value (cocklebur; [3]) was 0 and the “Cocklebur plant response rating” value (cocklebur; [7]) was 0. For the same molecule, the “Plant response rating, Cocklebur” value (cocklebur; [4]) was 0, the “Corn plant response rating” value (corn; [5]) was 0 and the “Plant response rating, Corn” value (corn; [6]) was 0. For the same molecule, the “Plant response rating, Corn” value (corn; [1]) was 0, the “Corn plant response rating” value (corn; [2]) was 0 and the “Corn plant response rating” value (corn; [3]) was 0. For the same molecule, the “Corn plant response rating” value (corn; [7]) was 0, the “Plant response rating, Corn” value (corn; [4]) was 0 and the “Crabgrass plant response rating” value (crabgrass; [5]) was 0. The “Plant response rating, Crabgrass” value (crabgrass; [6]) was 0, the “Plant response rating, Crabgrass” value (crabgrass; [1]) was 1 and the “Crabgrass plant response rating” value (crabgrass; [2]) was 0. The “Crabgrass plant response rating” value (crabgrass; [3]) was 0, the “Crabgrass plant response rating” value (crabgrass; [7]) was 6 and the “Plant response rating, Crabgrass” value (crabgrass; [4]) was 8. For the same molecule, the “Giant foxtail plant response rating” value (giant foxtail; [5]) was 0, the “Plant response rating, Giant foxtail” value (giant foxtail; [6]) was 0 and the “Plant response rating, Giant foxtail” value (giant foxtail; [1]) was 0. For the same molecule, the “Giant foxtail plant response rating” value (giant foxtail; [2]) was 0, the “Giant foxtail plant response rating” value (giant foxtail; [3]) was 0 and the “Giant foxtail plant response rating” value (giant foxtail; [7]) was 4. For the same molecule, the “Plant response rating, Giant foxtail” value (giant foxtail; [4]) was 9, the “Morningglory plant response rating” value (morningglory; [5]) was 0 and the “Plant response rating, Morningglory” value (morningglory; [6]) was 2. The “Plant response rating, Morningglory” value (morningglory; [1]) was 2, the “Morningglory plant response rating” value (morningglory; [3]) was 0 and the “Morningglory plant response rating” value (morningglory; [7]) was 0. The “Plant response rating, Morningglory” value (morningglory; [4]) was 0, the “Redroot pigweed plant response rating” value (pigweed; [5]) was 0 and the “Plant response rating, Redroot pigweed” value (pigweed; [6]) was 0. The “Plant response rating, Redroot pigweed” value (pigweed; [1]) was 0, the “Redroot pigweed plant response rating” value (pigweed; [3]) was 0 and the “Redroot pigweed plant response rating” value (pigweed; [7]) was 0. The “Plant response rating, Redroot pigweed” value (pigweed; [4]) was 0, the “Rape plant response rating” value (rape; [5]) was 0 and the “Plant response rating, Rape” value (rape; [6]) was 0. The “Plant response rating, Rape” value (rape; [1]) was 0, the “Rape plant response rating” value (rape; [3]) was 0 and the “Rape plant response rating” value (rape; [7]) was 0. The “Plant response rating, Rape” value (rape; [4]) was 0, the “Soybean plant response rating” value (soybean; [5]) was 2 and the “Plant response rating, Soybean” value (soybean; [6]) was 3. For the same molecule, the “Plant response rating, Soybean” value (soybean; [1]) was 3, the “Soybean plant response rating” value (soybean; [3]) was 0 and the “Soybean plant response rating” value (soybean; [7]) was 0. The “Plant response rating, Soybean” value (soybean; [4]) was 0, the “Sugarbeets plant response rating” value (sugar beet; [5]) was 0 and the “Plant response rating, Sugarbeets” value (sugar beet; [6]) was 0. For the same molecule, the “Plant response rating, Sugarbeets” value (sugar beet; [1]) was 0, the “Sugarbeets plant response rating” value (sugar beet; [3]) was 0 and the “Sugarbeets plant response rating” value (sugar beet; [7]) was 0. The “Plant response rating, Sugarbeets” value (sugar beet; [4]) was 0, the “Velvetleaf plant response rating” value (velvetleaf; [5]) was 0 and the “Plant response rating, Velvetleaf” value (velvetleaf; [6]) was 0. For the same molecule, the “Plant response rating, Velvetleaf” value (velvetleaf; [1]) was 0, the “Velvetleaf plant response rating” value (velvetleaf; [3]) was 0 and the “Velvetleaf plant response rating” value (velvetleaf; [7]) was 0. For the same molecule, the “Plant response rating, Velvetleaf” value (velvetleaf; [4]) was 0, the “Wheat plant response rating” value (wheat; [5]) was 0 and the “Plant response rating, Wheat” value (wheat; [6]) was 0. For the same molecule, the “Plant response rating, Wheat” value (wheat; [1]) was 0, the “Wheat plant response rating” value (wheat; [3]) was 0 and the “Wheat plant response rating” value (wheat; [7]) was 0. For the same molecule, the “Plant response rating, Wheat” value (wheat; [4]) was 0, the “Wild oats plant response rating” value (wild oat; [5]) was 0 and the “Plant response rating, Wild oats” value (wild oat; [6]) was 0. For the same molecule, the “Plant response rating, Wild oats” value (wild oat; [1]) was 0, the “Wild oats plant response rating” value (wild oat; [3]) was 0 and the “Wild oats plant response rating” value (wild oat; [7]) was 0. The “Plant response rating, Wild oats” value (wild oat; [4]) was 0, the “Nutsedge plant response rating” value (purple nutsedge; [5]) was 0 and the “Plant response rating, Nutsedge” value (purple nutsedge; [6]) was 0. The “Plant response rating, Nutsedge” value (purple nutsedge; [1]) was 0, the “Nutsedge plant response rating” value (purple nutsedge; [7]) was 0 and the “Plant response rating, Nutsedge” value (purple nutsedge; [4]) was 0. The “Rice plant response rating” value (rice; [8]) was 0, the “Plant response rating, Rice (0 to 10 scale, 0 is no effect, 10 is complete control)” value (rice; [9]) was 0 and the “Rice plant response rating (0 to 10 scale, 0 is no effect, 10 is complete control)” value (rice; [10]) was 0. The “Rice plant response rating” value (rice; [11]) was 0, the “S. Flatsedge plant response rating” value (smallflower flatsedge; [8]) was 0 and the “Plant response rating, S. Flatsedge (0 to 10 scale, 0 is no effect, 10 is complete control)” value (smallflower flatsedge; [9]) was 0. For the same molecule, the “S. Flatsedge plant response rating (0 to 10 scale, 0 is no effect, 10 is complete control)” value (smallflower flatsedge; [10]) was 0, the “S. Flatsedge plant response rating” value (smallflower flatsedge; [11]) was 0 and the “Ducksalad plant response rating” value (duck salad; [8]) was 0. For the same molecule, the “Plant response rating, Ducksalad (0 to 10 scale, 0 is no effect, 10 is complete control)” value (duck salad; [9]) was 0, the “Ducksalad plant response rating (0 to 10 scale, 0 is no effect, 10 is complete control)” value (duck salad; [10]) was 0 and the “Ducksalad plant response rating” value (duck salad; [11]) was 0. The “Barnyardgrass plant response rating” value (bamyardgrass; [8]) was 0, the “Plant response rating, Barnyardgrass (0 to 10 scale, 0 is no effect, 10 is complete control)” value (bamyardgrass; [9]) was 0 and the “Barnyardgrass plant response rating (0 to 10 scale, 0 is no effect, 10 is complete control)” value (bamyardgrass; [10]) was 0. For the same molecule, the “Barnyardgrass plant response rating” value (bamyardgrass; [11]) was 0.
